Read-outs that look alike come from different tables or passages of the source.
Experiments:
[1] = Pharmacokinetic study of sarpogrelate hydrochloride i.v. in rats; format: in vivo, rat; settings: after sarpogrelate hydrochloride 2 mg/kg i.v.
Method: Pharmacokinetic study was performed in male Wistar rats equipped with the jugular vein cannulas. Sarpogrelate hydrochloride was formulated in Pharmasolv: PBS buffer (5:95) mixture and administered at the dose of 2 mg/kg intravenously. Blood samples were collected from the jugular vein using heparin as anticoagulant at the scheduled time-points: 5 min, 15 min, 30 min, 1 h, 1.5 h, 2 h, 4 h, and 6 h. An LC-MS/MS bioanalytical method was used for the simultaneous quantification of sarpogrelate and M1 in plasma samples. […] Formation of M1 metabolite of sarpogrelate was rapid as the highest M1 concentrations were measured at the first sampling time points.

[2] = format: in vivo, rat; settings: 10 mg/kg intraperitoneally, male SD rats
Method: Adult male SD rats were pretreated with the compound 146 or M1 (10 mg/kg intraperitoneally) and the brain and blood plasma were collected 30, 60, 120 and 240 min after M1 administration. The amount of compound in brain tissue extracts was measured using the UPLC/MS analysis.

[3] = biological target: T1, CYP2D6 (Homo sapiens (Human), UniProt P10635); settings: dextromethorphan as substrate; cited from earlier work
[4] = biological target: peripheral 5-HT2A receptors (Rattus norvegicus (Rat), UniProt P14842); settings: cited from earlier work; for 5-methoxytryptamine-induced hyperglycemia: pretreatment
[5] = biological target: T1, CYP2D6; settings: DEX O-demethylation; read-out: estimated mean IC50; cited from earlier work
[6] = biological target: 5-HT2A receptors (Homo sapiens (Human), UniProt P28223); test: 5-HT2A receptor antagonist radioligand binding ([3H]ketanserin)
Method: HEK-293 cells expressing human recombinant 5HT2A receptor were used in the antagonist radioligand binding studies. […] The inhibition constants (Ki) were calculated using the Cheng Prusoff equation. Both sarpogrelate enantiomers were potent inhibitors of [3H]ketanserin binding (Table 1). M1 enantiomers also potently bind to 5HT2A receptors with the Ki values that are approximately one order of magnitude higher than those of sarpogrelate enantiomers (Table 1). There are no meaningful differences between enantiomers in terms of 5-HT2A receptor binding for sarpogrelate or its main metabolite.
5HT2a ASSAY: Evaluation of the affinity of compounds for the human 5-HT2A receptor in transfected HEK-293 cells determined in a radioligand binding assay. Cell membrane homogenates (30-50 μg protein) were incubated 15 min at 37° C. with 0.5 nM [3H]ketanserin in the absence or presence of the test compound in a buffer containing 50 mM Tris-HCl (pH 7.4). Nonspecific binding was determined in the presence of 1 μM ketanserin. Following incubation, the samples were filtered rapidly under vacuum through glass fiber filters presoaked with 0.3% PEI and rinsed several times with ice-cold 50 mM Tris-HCl using a 96-sample cell harvester. The filters were dried then counted for radioactivity in a scintillation counter using a scintillation cocktail (WO2005013952A1, EP1500391A1[ab1], incorporated in its entirety by reference).

[7] = biological target: T1, CYP2D6; test: Dextromethorphan O-demethylase activity in human liver microsomes; format: biochemical; settings: CYP 2D6 activity; pooled human liver microsomes 0.25 mg/ml; read-out: IC50
Method: Dextromethorphan O-demethylase activity was determined in human liver microsomes. […] The incubation mixtures contained pooled human liver microsomes (final concentrations: 0.25 mg/ml), dextromethorphan, and a NADPH-generating system (1.3 mM NADP+, 3.3 mM glucose 6-phosphate, 3.3 mM MgCl2, and 0.4 U/ml glucose-6-phosphate dehydrogenase). […] All incubations were performed in triplicate, and mean values were used for analysis. […] Both sarpogrelate enantiomers inhibited CYP2D6-mediated dextromethorphan O-demethylation (Table 4).

[8] = system: MK-801-induced hyperactivity; test: MK-801-induced hyperactivity in rats; format: in vivo, rat
Method: To confirm the ability of M1 enantiomers to induce effects that are relevant to CNS diseases and that are known for 5-HT2A receptor […], separate groups of female Wistar rats (n=6-9), housed 4-5 per cage under standard colony room conditions with free access to food and water, were pretreated intraperitoneally with varying doses of one of the two M1 enantiomers (0, 3 or 10 mg/kg) followed 15 minutes later by 0.1 mg/kg of MK801 or its vehicle and immediately thereafter placed into computer-controlled motor activity recording chambers (25×35.5×34 cm, L×W×H; transparent Plexiglas walls and a non-transparent plastic floor; enclosed within sound-attenuating ventilated cubicles) for 60 minutes, during which infrared photocell interruptions (5 cm and 14 cm off the floor) were recorded as a measure of motor activity. MK-801 is a phencyclidine-like NMDA receptor channel blocked commonly used in psychopharmacology research on novel therapies including novel antipsychotics.

[9] = system: locomotor activity, stereotypy, ataxia; settings: rats, cited from earlier work; for PCP-elicited hyperactivity / motor behaviors after pretreatment: 10 mg/kg PCP; for behavioral effects given alone (locomotor hyperactivity, stereotypy, ataxia): DO 15-120 mg/kg, DEX 15-120 mg/kg, PCP 1.25-20 mg/kg
[10] = cited from earlier work; for basal insulin secretion: mouse or human islets or in vivo
[11] = system: NMDA receptors; settings: compared to that of DEX; cited from earlier work
[12] = system: PCP-induced hyperactivity; test: Phencyclidine-induced hyperactivity in rats (sarpogrelate and dextromethorphan); format: in vivo, rat; settings: dextromethorphan by itself
[13] = Blood glucose levels and oral glucose tolerance in rats; format: in vivo, rat; settings: given alone, intraperitoneal
Method: Test substances were administered to male Wistar (Han) rats (180-280 g at the beginning of the experiments; Janvier Labs) housed in groups under free access to food and water. After overnight food deprivation, the tip of the tail was cut, each rat was weighed, housed individually and left without stress in a quiet room. Approximately 1 hour later, baseline blood glucose was measured from a drop of blood collected from the tail tip, using a commercially available glucose-meter (OneTouch®, Lifescan) and then rats received intraperitoneal injection of sarpogrelate and/or dextromethorphan and 30 min later blood glucose was measured again and rats immediately challenged with glucose at 2 g/kg by oral gavage. Then, blood glucose was measured at 6 time-points until 180 minutes post-glucose challenge.

[14] = system: rat primary mixed mesencephalic neuron-glia cultures; settings: 1-10 micro M; cited from earlier work
[15] = cited from earlier work
[16] = high doses; cited from earlier work
[17] = system: insomnia; settings: human, in vivo; cited from earlier work
[18] = system: treatment-resistant major depressive disorder; settings: in vivo; cited from earlier work
[19] = system: generalized anxiety disorder; settings: human, in vivo; cited from earlier work

T1 sequence (P10635 whole entry): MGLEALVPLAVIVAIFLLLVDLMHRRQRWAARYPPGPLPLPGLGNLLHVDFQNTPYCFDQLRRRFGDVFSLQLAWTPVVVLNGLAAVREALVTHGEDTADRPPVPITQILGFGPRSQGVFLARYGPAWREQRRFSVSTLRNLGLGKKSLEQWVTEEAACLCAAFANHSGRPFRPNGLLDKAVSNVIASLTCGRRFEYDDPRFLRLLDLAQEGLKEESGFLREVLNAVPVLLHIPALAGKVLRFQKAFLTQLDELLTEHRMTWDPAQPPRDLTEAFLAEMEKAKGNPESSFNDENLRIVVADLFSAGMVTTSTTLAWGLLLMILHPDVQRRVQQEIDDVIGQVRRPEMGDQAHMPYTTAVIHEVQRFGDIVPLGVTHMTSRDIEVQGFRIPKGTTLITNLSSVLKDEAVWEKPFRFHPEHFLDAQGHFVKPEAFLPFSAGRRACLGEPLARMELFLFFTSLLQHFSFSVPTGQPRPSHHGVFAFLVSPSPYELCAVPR
5-HT2A receptors, sequence (P28223 whole entry): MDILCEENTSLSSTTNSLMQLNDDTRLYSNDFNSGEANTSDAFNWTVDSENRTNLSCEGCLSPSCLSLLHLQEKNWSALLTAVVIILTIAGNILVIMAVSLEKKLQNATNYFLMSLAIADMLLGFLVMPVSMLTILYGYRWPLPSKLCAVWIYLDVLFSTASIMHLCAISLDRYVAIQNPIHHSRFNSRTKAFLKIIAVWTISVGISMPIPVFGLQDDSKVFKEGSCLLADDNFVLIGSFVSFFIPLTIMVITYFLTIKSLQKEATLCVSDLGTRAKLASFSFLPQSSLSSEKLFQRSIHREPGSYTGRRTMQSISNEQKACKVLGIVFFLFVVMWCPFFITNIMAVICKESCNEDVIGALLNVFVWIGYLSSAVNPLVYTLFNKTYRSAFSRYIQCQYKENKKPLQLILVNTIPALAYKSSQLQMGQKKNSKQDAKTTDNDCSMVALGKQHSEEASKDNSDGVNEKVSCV

## COc1cccc(CCc2ccccc2OCC(O)CN(C)C)c1 (racemic) [Compound 146, 1-(dimethylamino)-3-(2-(3-methoxyphenethyl)phenoxy)propan-2-ol]
[1]
  Formation of M1 metabolite of sarpogrelate: rapid
[1]; plasma
  M1/sarpogrelate ratio: 2.98±0.597%
[2]; 30, 60, 120 and 240 min
  total brain concentration vs blood concentration: significantly exceeded the blood concentration
[2]
  penetration into the brain: readily penetrates into the brain
[3]
  inhibition type (Dixon plots): fit well to all competitive inhibition types

## COc1ccc2[nH]cc(CCN)c2c1 [5-methoxytryptamine]
[4]; agonist given alone
  blood glucose: induced hyperglycemia

## CN1CCN(CC/C=C2/c3ccccc3Sc3ccc(S(=O)(=O)N(C)C)cc32)CC1 [Cisthiothixene]
[5]
  IC50: 137 µM

## COc1cccc(CCc2ccccc2OC[C@H](O)CN(C)C)c1 [Compound 148, (R)-1-(dimethylamino)-3-(2-(3-methoxyphenethyl)phenoxy) propan-2-ol]
[6]; Ki calculated using the Cheng Prusoff equation
  Ki: 0.000631 µM
[6]; inhibition of [3H]ketanserin binding, HEK-293 cells expressing human recombinant 5HT2A receptor
  IC50: 0.0013 µM
[7]
  IC50: 0.096 µM
[8]; M1 enantiomer 3 or 10 mg/kg i.p., 15 min before 0.1 mg/kg MK801, female Wistar rats
  hyperactivity induced by MK-801 (motor activity, 60 min): reduced hyperactivity induced by MK-801

## CN1CC[C@@]23CCCC[C@@H]2[C@@H]1Cc1ccc(O)cc13 [DO, dextrorphan]
[9]
  PCP-elicited hyperactivity / motor behaviors after pretreatment: facilitated
  behavioral effects given alone (locomotor hyperactivity, stereotypy, ataxia): dose-dependent locomotor hyperactivity, stereotypy and ataxia
[9]; listed as dextrorphan
  PCP-elicited hyperactivity / motor behaviors after pretreatment: but not its metabolite dextrorphan
[10]
  basal insulin secretion: did not significantly alter basal insulin secretion
[11]
  affinity for NMDA receptors: substantially higher affinity

## COc1cccc([C@H](O)C2CCN(CCc3ccc(F)cc3)CC2)c1OC [M-100,907]
[8]; 3 mg/kg
  hyperactivity induced by MK-801 (motor activity, 60 min): reduced hyperactivity induced by MK-801

## COc1ccc2c(c1)[C@@]13CCCC[C@H]1[C@@H](C2)N(C)CC3 [dextromethorphan, 3-methoxy-17-methylmorphinan]
[12]; oral administration
  motor activity in PCP-treated rats: enhanced
[12]; subcutaneous administration
  motor activity in PCP-treated rats: reduced
[13]
  blood glucose level (AUC 30-180 min after oral glucose 2 g/kg): significantly reduced blood glucose level
[9]
  PCP-elicited hyperactivity / motor behaviors after pretreatment: attenuate phencyclidine-induced motor behaviors
  behavioral effects given alone (locomotor hyperactivity, stereotypy, ataxia): induced moderate hyperactivity only at the higher doses
[9]; listed as DEX
  PCP-elicited hyperactivity / motor behaviors after pretreatment: dose-dependently inhibited
[10]; DEX via drinking water 4 mg/ml overnight, glucose i.p., mice
  glucose-induced plasma insulin concentrations and glucose tolerance: significantly higher glucose-induced plasma insulin concentrations and glucose tolerance
[10]; DEX via drinking water 4 mg/ml overnight, mice
  basal plasma insulin and fasting blood glucose concentrations: changed neither basal plasma insulin nor fasting blood glucose concentrations
[10]
  basal insulin secretion: did not significantly alter basal insulin secretion
[14]
  protection of dopamine neurons: protected dopamine neurons against lipopolysaccharide (LPS)-induced reduction of dopamine uptake
[15]; 270 mg DEX vs placebo
  area under the curve of blood glucose concentrations within the first 2 h of the OGTT (glucose AUC1-3 h): significantly (P<0.05) smaller
[15]; 60 and 270 mg DEX vs placebo
  maximal serum insulin concentrations following oral glucose intake: significantly (P<0.05) higher maximal serum insulin concentrations
[15]; single oral dose 60 or 270 mg, males with T2DM on metformin
  fasting serum insulin and fasting blood glucose concentrations: led to neither higher fasting serum insulin concentrations nor lower fasting blood glucose concentrations
[15]; up to a dose of 270 mg
  severe hypoglycemic events: did not provoke any severe hypoglycemic events
[16]
  heart rate, blood pressure, temperature, and plasma bromide: mild elevations of heart rate, blood pressure, temperature, and plasma bromide

## CN(C)CCO/N=C(/C=C/c1ccc(O)cc1)c1ccccc1F [eplivanserin]
[17]
  clinical efficacy in insomnia: demonstrated clinical efficacy in patients with insomnia

## CNC1(c2ccccc2Cl)CCCCC1=O (stereo not drawn) [ketamine, 2-(2-chlorophenyl)-2-(methylamino)cyclohexan-1-one]
[18]
  antidepressant activity: rapid and robust antidepressant activity

## O=C(c1ccc(F)cc1)C1CCN(CCn2c(=O)[nH]c3ccccc3c2=O)CC1 [ketanserin]
[4]
  5-methoxytryptamine-induced hyperglycemia: prevented

## C=C[C@H]1C[N@@]2CC[C@H]1C[C@@H]2[C@@H](O)c1ccnc2ccc(OC)cc12 [quinidine]
[3]
  inhibition type (Dixon plots): fit well to all competitive inhibition types

## Cc1nc2n(c(=O)c1CCN1CCC(c3noc4cc(F)ccc34)CC1)CCCC2 [risperidone]
[5]
  IC50: 39.1 µM

## COC(=O)c1c2n(c3ccccc13)Cc1ccccc1N1CCN(C)CC21.Cl (stereo not drawn) [serazepine]
[19]
  efficacy in generalized anxiety disorder: shown efficacy

## COc1cccc(OC(C)CNC(=N)Cc2cccc(C)c2)c1 (stereo not drawn) [xylamidine]
[4]
  5-methoxytryptamine-induced hyperglycemia: prevented

Reference: US11478467B2 (priority 2017, dated 2022)
